Laboratory results taken from BigSolDB 2.1.

CCOC(=O)[C@@H](C)Oc1ccc(Oc2nc3ccc(Cl)cc3o2)cc1
solubility (mole fraction)
Conditions | 278.15 K | 283.15 K | 288.15 K | 293.15 K | 298.15 K | 303.15 K | 308.15 K | 313.15 K | 318.15 K | 323.15 K
in ethanol | 0.000972 | 0.00121 | 0.0015 | 0.00186 | 0.00224 | 0.00266 | 0.00314 | 0.00376 | 0.00446 | 0.00534
in water | 1.93e-06 | 2.91e-06 | 4.12e-06 | 5.68e-06 | 7.36e-06 | 9.61e-06 | 1.24e-05 | 1.59e-05 | 2.03e-05 | 2.57e-05
